Consider five compounds from patent publication US20060252116A1, “Icam-4 binding sites” (priority 2002, published 2006).

Common to all, as to format: cell-based
Experiment [1] has as its system HEL cell binding to human ICAM-4Fc. Kind of experiment: Cell adhesion assay: peptide inhibition of HEL cell binding to human ICAM-4Fc. The note with it: for input cells bound expressed as a percentage of binding to ICAM-4Fc in the absence of peptides: FIG. 8, human ICAM-4Fc coated at 5 μg/ml, peptides 500 μM each, mean of three assays; for input cells bound expressed as a percentage of binding to human ICAM-4Fc in the absence of peptides: FIG. 16, human ICAM-4Fc coated at 2.5 μg/ml, peptides 750 μM each, EDTA 2 mM, mean of two assays. The protocol: (§1) Cell adhesion assays were performed as described in Spring et al. 2001 (supra). Immulon4 96 well plates (Dynex Technologies, Billingshurst, United Kingdom) were coated with 1 μg/well goat-antihuman-Fc (Sigma, Poole, United Kingdom) for 24 hours at 4° C., washed three times with PBS and coated with an Fc fusion ICAM-4 protein for 18 hours at 4° C. before blocking with 0.4% BSA PBS for 2 hours at 22° C. Cells were labelled with 10 μg/ml 2′,7′-bis-(2-carboxyethyl)-5-(and-6-) carboxyfluorescein acetoxymethyl ester in assay buffer (IMEM, 2 mM EGTA, 10 μg/ml human ivIgG) for 15 minutes at 37° C. HT1080 cells were activated with 80 μM phorbol myristate acetate prior to both cells being washed with assay buffer containing 2 mM Mn^2+. Cells, at 5×10^4 cells per well, were added to the ICAM-4Fc-coated plates for 30 minutes at 37° C., prior to being given repeated washes in assay buffer and read on a fluorescence microplate reader (excitation 485 nm, emission 530 nm). The percentage of bound cells was calculated after each wash. […] In peptide inhibition studies the appropriate ICAM-4Fc coating concentration for each cell line was pre-determined by titration of ICAM-4Fc and the lowest concentration at which maximal binding was achieved was used to coat the plates

Experiment [2] deals with HT1080 cell binding to human ICAM-4Fc. Kind of experiment: Cell adhesion assay: peptide inhibition of HT1080 cell binding to human ICAM-4Fc. Here is the method:
as §1

The test system of experiment [3] is HEL cell binding to murine ICAM-4Fc. The experiment is described as follows: Cell adhesion assay: peptide inhibition of HEL cell binding to murine ICAM-4Fc. The note with it: FIG. 12, murine ICAM-4Fc coated at 5 μg/ml, peptides 500 μM each, mean of two assays. Here is the method:
Cell adhesion assays were performed as described in Spring et al. 2001 (supra). Immulon4 96 well plates (Dynex Technologies, Billingshurst, United Kingdom) were coated with 1 μg/well goat-antihuman-Fc (Sigma, Poole, United Kingdom) for 24 hours at 4° C., washed three times with PBS and coated with an Fc fusion ICAM-4 protein for 18 hours at 4° C. before blocking with 0.4% BSA PBS for 2 hours at 22° C. Cells were labelled with 10 μg/ml 2′,7′-bis-(2-carboxyethyl)-5-(and-6-) carboxyfluorescein acetoxymethyl ester in assay buffer (IMEM, 2 mM EGTA, 10 μg/ml human ivIgG) for 15 minutes at 37° C. HT1080 cells were activated with 80 μM phorbol myristate acetate prior to both cells being washed with assay buffer containing 2 mM Mn^2+. Cells, at 5×10^4 cells per well, were added to the ICAM-4Fc-coated plates for 30 minutes at 37° C., prior to being given repeated washes in assay buffer and read on a fluorescence microplate reader (excitation 485 nm, emission 530 nm). The percentage of bound cells was calculated after each wash. Peptide inhibition was performed by incubating the cells with 500 μM peptide at 0° C. for 15 minutes ahead of their addition, still in the presence of 500 μM peptide to the ICAM-4Fc coated plates. In peptide inhibition studies the appropriate ICAM-4Fc coating concentration for each cell line was pre-determined by titration of ICAM-4Fc and the lowest concentration at which maximal binding was achieved was used to coat the plates

Experiment [4] has as its system HT1080 cell binding to murine ICAM-4Fc. Kind of experiment: Cell adhesion assay: peptide inhibition of HT1080 cell binding to murine ICAM-4Fc. The note with it: FIG. 14, murine ICAM-4Fc coated at 5 μg/ml, peptides 500 μM each, mean of two assays. Here is the method:
as §1

The test system of experiment [5] is erythroblast adhesion to ICAM-4. The experiment is described as follows: Peptide inhibition of erythroblast adhesion to ICAM-4. Conditions: FIG. 19; 5 μg/ml ICAM-4; 5 μg/ml TS2/16 beta 1 activating antibody; peptides 500 μM. The protocol:
We have utilised the blocking ICAM-4 peptides (i.e., SEQ ID NOs: 9, 10, 11 and 13—see Example 1) in order to inhibit the adhesion of day 4 erythroblasts to ICAM-4 (see FIG. 19). Erythroblast cultures were initiated from CD34 positive cells purified from pooled buffy coat residues (obtained from the National Blood Service, Bristol, UK) and maintained as described in Southcott et al. (1999, Blood 93: 4425-4435). Cell adhesion assays were performed as described in Example 1 above. Immulon-4 96 well plates (Dynes Technologies, Billingshurst, UK) were coated with 1 μg/well goat-antihuman-Fc (Sigma, Poole, UK) for 24 hours at 4° C., washed three times with PBS and coated with 0.25 μg/well Fc fusion ICAM-4 protein (ICAM-4Fc) for 18 hours at 4° C. before blocking with 0.4% BSA PBS for 2 hours at 22° C. Erythroblasts were labelled with 10 μg/ml 2′,7′-bis-(2-carboxyethyl)-5-(and-6-)carboxyfluorescein acetoxymethyl ester (Sigma, Poole, UK) in assay buffer (Iscoves modified Eagle medium, 2 mM EGTA, 0.1% BSA, 10 μg/ml Immune globulin intravenous (human) (Cutter Biological, Newbury, Berks, UK)) for 15 minutes at 37° C. Erythroblasts were washed with assay buffer containing 2 mM Mn^2+. Erythroblasts, at 5×10^4 cells per well, were added to the ICAM-4Fc-coated plates for 30 minutes at 37° C., prior to being cyclically read on a fluorescence microplate reader (excitation 485 nm, emission 530 nm) and washed in assay buffer. The percentage of bound cells was calculated after each wash Peptide inhibition was performed by incubating the cells with 500 μM peptide and 5 μg/ml TS2/16 (beta 1 activating antibody (IBGRL) at 0° C. for 15 minutes before their addition to the ICAM-4Fc coated plates.

The subject of experiment [6] is neutrophil adhesion to ICAM-4. The experiment is described as follows: Peptide and antibody inhibition of neutrophil adhesion to ICAM-4. Conditions: FIG. 20; 2.5 μg/ml ICAM-4; 10 μg/ml blocking antibodies; peptides 500 μM. The protocol: Utilising blocking β integrin subunit antibodies and our blocking ICAM-4 peptides (i.e., SEQ ID NOs: 9, 10, 11 and 13—see Example 1) in a microplate neutrophil adhesion assay. Neutrophils were purified from buffy coats (obtained from the National Blood Service, Bristol, UK) as described in Henderson et al. (1987, Biochem. J. 246: 325-329). Cell adhesion assays were performed as described in Example 1 above. Immulon-4 96 well plates (Dynes Technologies, Billingshurst, UK) were coated with 1 μg/well protein A (Sigma, Poole, UK) for 24 hours at 4° C., washed three times with PBS and coated with 0.125 μg/well Fc fusion ICAM-4 protein (ICAM-4Fc) for 18 hours at 4° C. before blocking with 0.4% BSA PBS for 2 hours at 22° C. Neutrophils were labelled with 10 μg/ml 2′,7′-bis-(2-carboxyethyl)-5-(and-6-)carboxyfluorescein acetoxymethyl ester (Sigma, Poole, UK) in assay buffer (Iscoves modified Eagle medium, 2 mM EGTA, 0.1% BSA for 15 minutes at 37° C. Neutrophils were washed with assay buffer containing 2 mM Mn^2+. Neutrophils, at 5×10^5 cells per well, were added to the ICAM-4Fc-coated plates for 10 minutes at 37° C., prior to being cyclically read on a fluorescence microplate reader (excitation 485 nm, emission 530 nm) and washed in assay buffer. The percentage of bound cells was calculated after each wash. […]

Ends that are not written are not given here.

For the compound `O=C(O)CN(CCN(CC(=O)O)CC(=O)O)CC(=O)O` [EDTA, reference compound], the “input cells bound expressed as a percentage of binding to ICAM-4Fc in the absence of peptides” value in experiment [1] is on record as 1%. Also, the “input cells bound expressed as a percentage of binding to human ICAM-4Fc in the absence of peptides” value amounted to 26% in experiment [1] and 10% in experiment [2] (FIG. 18, human ICAM-4Fc coated at 5 μg/ml, peptides 750 μM each, EDTA 2 mM, mean of two assays). Further, in experiment [2] (FIG. 10, human ICAM-4Fc coated at 7.5 μg/ml, peptides 500 μM each, mean of three assays), the “input cells bound expressed as a percentage of binding to human ICAM4Fc in the absence of peptides” value turned out to be 6%. Moreover, the “input cells bound expressed as a percentage of binding to murine ICAM-4Fc in the absence of peptides” value is reported as 8% in experiment [3] and 1% in experiment [4].
On to “aWssLahcl (AWSSLAHCL; not fully specified (some residues)) [aWssLahcl peptide]”, for which the “input cells bound expressed as a percentage of binding to human ICAM-4Fc in the absence of peptides” value in experiment [1] was 50%. In experiment [5], the “effect on adhesion of day 4 erythroblasts to ICAM-4” value (from here on “effect on adhesion … to ICAM-4”) is “inhibit adhesion”. In addition, the “effect on adhesion between neutrophils and ICAM-4” value in experiment [6] is “inhibit this interaction”.
As to “rqgktlrgp (RQGKTLRGP; not fully specified (some residues); printed as rqgktlrgp) [rqgktlrgp peptide, reference compound]”, in experiment [1], the “input cells bound expressed as a percentage of binding to ICAM-4Fc in the absence of peptides” value was 107% and the “input cells bound expressed as a percentage of binding to human ICAM-4Fc in the absence of peptides” value is reported as 105%. Moreover, the “input cells bound expressed as a percentage of binding to murine ICAM-4Fc in the absence of peptides” value in experiment [3] amounted to 94%. Moreover, the “effect on adhesion … to ICAM-4” value in experiment [5] is recorded as “had no effect”.
With “svpFWVrms (SVPFWVRMS; not fully specified (residues 1, 2, 3, 7, 8, 9)) [svpFWVrms peptide]”, in experiment [1], the “input cells bound expressed as a percentage of binding to ICAM-4Fc in the absence of peptides” value was found to be 61% and the “input cells bound expressed as a percentage of binding to human ICAM-4Fc in the absence of peptides” value is 64%. The “input cells bound expressed as a percentage of binding to murine ICAM-4Fc in the absence of peptides” value in experiment [3] turned out to be 67%. Besides, the “effect on adhesion … to ICAM-4” value in experiment [5] is “had no effect”.
With “tRwATSRit (TRWATSRIT; not fully specified (residues 1, 3, 8, 9)) [tRwATSRit peptide]”, in experiment [1], the “input cells bound expressed as a percentage of binding to ICAM-4Fc in the absence of peptides” value was 58% and the “input cells bound expressed as a percentage of binding to human ICAM-4Fc in the absence of peptides” value was 58%. Further, the “input cells bound expressed as a percentage of binding to murine ICAM-4Fc in the absence of peptides” value in experiment [3] amounted to 58%. Also, the “effect on adhesion … to ICAM-4” value in experiment [5] is reported as “inhibit adhesion”. The “effect on adhesion between neutrophils and ICAM-4” value in experiment [6] is “inhibit this interaction”.
